Test system: EGFP-HttQ74 aggregates in U2OS cells
Test: Analysis of polyQ (EGFP-HttQ74) aggregation in U2OS cells
Assay type: cell-based
Conditions: U2OS EGFP-HttQ74, 5 μM, 24 h, with BOC-D-FMK
Protocol: Considering these earlier findings, we assessed the impact of the most promising compound, RUN-89, on protein aggregate formation in cells. U2OS cells were transfected with the EGFP-HttQ74 plasmid, a model for polyglutamine (polyQ) aggregation, and then treated with the caspase inhibitor BOC-D-FMK in combination with either 5 μM RUN compounds or a vehicle control for 24 hours prior to the microscopy analysis (Fig. 4). […] A decrease in aggregate size leads to an increase in their number, as the formation of large aggregates is prevented. Instead, multiple smaller aggregates are formed, which, according to our assumption, could be more easily degraded (Fig. 4B). […] Representative fluorescence microscopy images of U2OS cells expressing EGFP-HttQ74 treated with RUN-89 are shown in Fig. 4D, highlighting the difference between RUN-89-treated and vehicle-treated cells.
U2OS cells expressing EGFP-HttQ74 were treated for 24 hours with either the caspase inhibitor BOC-D-FMK, 5 μM RUN compounds, or DMSO (negative control). In total, cells from three independent experiments were analyzed (n = 3) and from every well 10 areas were screened. […] The volume value was measured in voxels. […] (D) Fluorescence microscopy images represent U2OS cells overexpressing EGFP-HttQ74 after treatment with RUN-89 and DMSO for 24 h. […]
instructions. […] Data were expressed as a fold change relative to the corresponding DMSO control. […]

COc1ccc(/C=C2\CC(NC(=O)C3CCCC3)C/C(=C\c3ccc(OC)c(OC)c3)C2=O)cc1OC (stereo not shown) [RUN-89]
Number of aggregates per cell: 4.545

Source: paper PMC12606464, “Investigating NFE2L1 activators for targeted protein aggregate clearance: a follow-up study” (RSC Medicinal Chemistry, 2025)
